The record followed here is patent US20260115170A1, “Method of Ameliorating a Symptom or a Disease in a Human Caused by Fungus” (ISHIHARA SANGYO KAISHA, LTD., priority 2020, published 2026).

Common to all, as to assay type: cell-based
Assay [1] concerns Microsporum canis (IFM63627). The experiment in a line: Test Example 5 antifungal activity test, minimum fungicidal concentration (MFC100) by treatment time. The method, then: (§1) Test Microbial Strains: Trichophyton rubrum (ATCCMYA4607), and Microsporum canis (IFM63627)
(§2) Trichophyton rubrum was cultured in a Sabouraud medium and Microsporum canis was cultured in a 1/10 Sabouraud medium, at 32° C. for 168 hours to form spores. For Trichophyton rubrum, hyphae were peeled off from the surface of the medium and recovered in a tube, physiological saline (Otsuka Normal Saline; containing 9 g of sodium chloride in 1000 mL) was added, these were wholly admixed using a disposable loop (type 1 (1 μL)) for dispersion, and a spore suspension containing the hyphae was recovered. For Microsporum canis, 10 mL of physiological saline was added directly onto the medium, and the surface was rubbed using a disposable loop to recover a spore suspension containing hyphae. The spore suspensions containing the hyphae of Trichophyton rubrum and Microsporum canis, respectively, were filtered through a cell strainer (\40 μm). The spores were recovered from the filtrate by centrifugation (3500 rpm, 5 minutes) and washed twice with physiological saline, and then a spore suspension was prepared (1×10^7 spores/mL). 10 μL of the spore suspension was inoculated into 90 μL of physiological saline to which test compound dissolved in DMSO was added to have a predetermined concentration. Every time a predetermined time elapsed, 10 μL of a test liquid containing the spores was collected, the spores were recovered by centrifugation (3500 rpm, 5 minutes) and washed twice with physiological saline, and then a 10 μL spore suspension was prepared. The 10 μL spore suspension was spotted onto a Sabouraud medium and subjected to culturing at 32° C. for 72 hours, the presence or absence of colony growth was investigated, and the minimum fungicidal concentration (MFC100) was determined.

The test system of assay [2] is Trichophyton rubrum (ATCCMYA4607). Described as above. As for the experimental part: as §1, §2
The test system is the same in assay [3]. The assay is described as follows: Test Example 2 minimum inhibitory concentration. The settings on record: Sabouraud medium, 25° C. for 120 hours. The method, then: (§3) Test Microbial Strains: Candida albicans (NBRC1594 Strain), Candida glabrata (JCM3761 Strain), Cryptococcus neoformans (JCM3685 Strain), Aspergillus fumigatus (JCM10253), Aspergillus niger (ATCC6725), Trichophyton rubrum (ATCCMYA4607), Trichophyton interdegitale (ATCC9533), Microsporum canis (NBRC7863), and Arthroderma vanbreuseghemii (JCM1891)
(§4) The Candida microbes and the Cryptococcus microbe were cultured at 30° C. for 72 hours and the other microbes were cultured at 25° C. for 120 hours in Sabouraud media, and then suspended in 5 mL of PBS (containing 8 g of sodium chloride, 2.9 g of disodium hydrogen phosphate, 0.2 g of potassium chloride, and 0.2 g of potassium dihydrogen phosphate in 1000 mL) containing Tween80 (polyoxyethylene sorbitan monooleate: Kanto Chemical Co., Inc.) (1% (V/V))), and the resulting suspension was filtered through a cell strainer (φ40 μm). Spores were recovered from the filtrate by centrifugation (3500 rpm, 5 minutes) and washed twice with physiological saline, and then a spore suspension was prepared (1×10^6 spores/mL). 50 μL of the spore suspension was inoculated into a Sabouraud medium to which compound No. 6 dissolved in DMSO was added to have a predetermined concentration. The Candida microbes and the Cryptococcus microbe were cultured at 30° C. for 72 hours and the other microbes were cultured at 25° C. for 120 hours, then the presence or absence of colony growth was investigated, and the minimum inhibitory concentration was determined.

Assay [4] deals with Microsporum canis (NBRC7863). The experiment in a line: Test Example 2 minimum inhibitory concentration. The settings on record: Sabouraud medium, 25° C. for 120 hours. The method, then:
as §3, §4

The subject of assay [5] is Candida glabrata (JCM3761 Strain). The assay is described as follows: Test Example 2 minimum inhibitory concentration. The settings on record: Nakaseomyces glabratus, Sabouraud medium, 30° C. for 72 hours. The method, then: as §3, §4
For assay [6], the system named is Malassezia restricta (IFM55992). The experiment in a line: Test Example 3-2 antifungal activity test, minimum fungicidal concentration after 1 minute. The settings on record: 1 minute contact, MLNA medium, 32° C. for 72 hours, read-out: Minimum fungicidal concentration (MFC100). As for the experimental part: Test Microbial Strain: Malassezia restricta (IFM55992) The Malassezia microbe (Malassezia restricta) cultured in a CHROMagar™ Malassezial Candida Prepared medium (peptone, special enzyme substrate mixture, chloramphenicol, olive oil, agar, manufactured by Kanto Chemical Co., Inc.) for 5 to 7 days was suspended in physiological saline, and a suspension thereof was prepared in such a way as to have an absorbance of 0.025 at 600 nm. Thereto, the test compound dissolved in DMSO was added in such a way as to provide a final concentration of 200, 100, 50, or 25 ppm, and after 1 minute, 10 μL of the suspension and 10 mL of physiological saline were placed in a syringe and stirred, and the syringe was connected to a 37 mm Quality Monitor (manufactured by Pall Corporation) followed by filtration and washing twice with 10 ml of physiological saline. The membrane filter was removed from the Quality Monitor, placed on a Leeming & Notman agar Modified medium (MLNA medium) (peptone, glucose, yeast extract, dried bovine bile, glycerol, glycerin stearate, Tween60, olive oil, agar), and subjected to culturing at 32° C. for 72 hours, the presence or absence of colony growth was investigated, and the minimum fungicidal concentration MFC100) was determined.

In assay [7] the test system is Malassezia furfur (IFM 55951). The experiment in a line: Test Example 3-1 antifungal activity test, minimum fungicidal concentration after 1 minute. The settings on record: 1 minute contact, CHROMagar medium, 32° C. for 72 hours, read-out: Minimum fungicidal concentration (MFC100). The method, then: (§5) Test Microbial Strains: Malassezia furfur (IFM 55951), Malassezia sympodialis (IFM 48588), and Malassezia globosa (IFM 51946) The Malassezia microbe (Malassezia furfur, Malassezia sympodialis, or Malassezia globosa) cultured in a CHROMagar™ Malassezia/Candida Prepared medium (peptone, special enzyme substrate mixture, chloramphenicol, olive oil, agar, manufactured by Kanto Chemical Co., Inc.) for 5 to 7 days was suspended in physiological saline, and a suspension thereof was prepared in such a way as to have an absorbance of 0.025 at 600 nm. Thereto, the test compound dissolved in DMSO was added in such a way as to provide a final concentration of 200, 100, 50, or 25 ppm, and after 1 minute, 10 μL of the suspension and 10 mL of physiological saline were placed in a syringe and stirred, and the syringe was connected to a 37 mm Quality Monitor (manufactured by Pall Corporation) followed by filtration and washing twice with 10 mL of physiological saline. The membrane filter was removed from the Quality Monitor, placed on a CHROMagar™ Malassezial Candida Prepared medium, and was subjected to culturing at 32° C. for 72 hours, the presence or absence of colony growth was investigated, and the minimum fungicidal concentration (MFC100) was determined.

Assay [8] deals with Malassezia globosa (IFM 51946). Described as above. The settings on record: 1 minute contact, CHROMagar medium, 32° C. for 72 hours, read-out: Minimum fungicidal concentration (MFC100). As for the experimental part:
as §5

Assay [9] concerns Malassezia sympodialis (IFM 48588). Described as above. The settings on record: 1 minute contact, CHROMagar medium, 32° C. for 72 hours, read-out: Minimum fungicidal concentration (MFC100). The method, then: as §5

Values after ≈ are worked out from the molar mass of the structure shown.

In general, MIC refers to the lowest concentration found to suppress growth. Read a low MIC as inhibition by little substance.

Regarding `Cc1ccc(-c2nc(C#N)[nH]c2Cl)cc1Cl` [Compound No. 6, 5-Chloro-4-(3-chloro-4-methylphenyl)-1H-imidazole-2-carbonitrile], the MFC in assay [1] (Treatment time 24 Hours) amounted to 50 µg/mL (≈ 198 µM); in [1] (Treatment time 96 Hours), 10 µg/mL (≈ 39.7 µM); in [2] (Treatment time 1 Hour) it was 50 µg/mL (≈ 198 µM); in [2] (Treatment time 48 Hours), 10 µg/mL (≈ 39.7 µM); in [2] (Treatment time 72 Hours), 5 µg/mL (≈ 19.8 µM); in [6] it was 200 µg/mL (≈ 793 µM). For the same compound, the MFC in [7], in assay [8] and in assay [9] was 50 µg/mL (≈ 198 µM) throughout. The values for the MIC in assay [3], in [4] and in assay [5] were 31.3 µg/mL (≈ 124 µM), 125 µg/mL (≈ 496 µM) and 250 µg/mL (≈ 992 µM), respectively.
